How the values were obtained:
human Nav1.7 = target: T1, human Nav1.7 (Homo sapiens, UniProt Q15858); assay: FRET assay (EFS, FDSS) on CHO cells expressing human NaV1.7 channels; format: cell-based; settings: for IC50: FRET assay, CHO cells expressing human NaV1.7, read-out: IC50 against Nav1.7
T1 construct: expressed in transfected cells; host or cells: CHO
Procedure: This screen was used to determine the effects of compounds on human NaV1.3, human Nav1.7, and human Nav1.5 channels, utilising electrical field stimulation (EFS) system in 96-well plate format on FDSS (Hamamatsu Photonics) platform. The change of membrane potential was monitored with FRET dye pair, oxonol (DiSBAC2(3)) and coumarin (CC2-DMPE).
CHO cells expressing human NaV1.7 channels were grown in T225 flasks, in a 5% CO2 humidified incubator to about 80% confluence. Media composition consisted of HAM/F12 with Glutamax I, 10% FCS, 100 units/ml Penicillin and 100 microgram/ml Hygromycin.
Protocol: • Seeded each cell lines (1×10^5 cells/well) into poly-D-lysine coated 96-well plates prior to experimentation. • Incubated at 37° C. in 5% CO2 for 24 hours. • Washed each well with assay buffer (140 mM NaCl, 4.5 mM KCl, 10 mM D-Glucose, 2 mM CaCl2, 1 mM MgCl2, 10 mM HEPES, pH 7.4 adjusted with NaOH) twice. • Added 1st loading solution containing 10 microM CC2-DMPE and 0.06% Pluronic F-127 in assay buffer. • Incubated the plate at room temperature in dark for 1 hour. • Removed 1st loading solution and added 2nd loading solution containing 15 microM DiSBAC2(3), 0.555 mM VABSC-1 and 0.004% Pluronic F-127 in assay buffer. • Placed the plate under the dark at room temperature for 25 minutes. • Added compound solutions into the assay plate. • Set the assay plate in FDSS and placed an EFS device on the plate. • Measured EFS-induced fluorescent response by FDSS.
The data were analyzed and reported as normalized ratios of intensities measured at […]. The process of calculating these ratios was performed as follows:
[formula] This analysis was performed using a computerized specific program designed for FDSS generated data. Fluorescence ratio values were plotted using XLfit to determine an IC50 value for each compound.

human NaV1.3 = target: T2, human NaV1.3 (Homo sapiens, UniProt Q9NY46); assay: FRET assay (EFS, FDSS) on HEK293 cells expressing human NaV1.3 channels; format: cell-based; settings: for IC50: FRET assay, HEK293 cells expressing human NaV1.3, read-out: IC50 against Nav1.3
T2 construct: expressed in transfected cells; host or cells: HEK293
T2 sequence (Q9NY46 whole entry): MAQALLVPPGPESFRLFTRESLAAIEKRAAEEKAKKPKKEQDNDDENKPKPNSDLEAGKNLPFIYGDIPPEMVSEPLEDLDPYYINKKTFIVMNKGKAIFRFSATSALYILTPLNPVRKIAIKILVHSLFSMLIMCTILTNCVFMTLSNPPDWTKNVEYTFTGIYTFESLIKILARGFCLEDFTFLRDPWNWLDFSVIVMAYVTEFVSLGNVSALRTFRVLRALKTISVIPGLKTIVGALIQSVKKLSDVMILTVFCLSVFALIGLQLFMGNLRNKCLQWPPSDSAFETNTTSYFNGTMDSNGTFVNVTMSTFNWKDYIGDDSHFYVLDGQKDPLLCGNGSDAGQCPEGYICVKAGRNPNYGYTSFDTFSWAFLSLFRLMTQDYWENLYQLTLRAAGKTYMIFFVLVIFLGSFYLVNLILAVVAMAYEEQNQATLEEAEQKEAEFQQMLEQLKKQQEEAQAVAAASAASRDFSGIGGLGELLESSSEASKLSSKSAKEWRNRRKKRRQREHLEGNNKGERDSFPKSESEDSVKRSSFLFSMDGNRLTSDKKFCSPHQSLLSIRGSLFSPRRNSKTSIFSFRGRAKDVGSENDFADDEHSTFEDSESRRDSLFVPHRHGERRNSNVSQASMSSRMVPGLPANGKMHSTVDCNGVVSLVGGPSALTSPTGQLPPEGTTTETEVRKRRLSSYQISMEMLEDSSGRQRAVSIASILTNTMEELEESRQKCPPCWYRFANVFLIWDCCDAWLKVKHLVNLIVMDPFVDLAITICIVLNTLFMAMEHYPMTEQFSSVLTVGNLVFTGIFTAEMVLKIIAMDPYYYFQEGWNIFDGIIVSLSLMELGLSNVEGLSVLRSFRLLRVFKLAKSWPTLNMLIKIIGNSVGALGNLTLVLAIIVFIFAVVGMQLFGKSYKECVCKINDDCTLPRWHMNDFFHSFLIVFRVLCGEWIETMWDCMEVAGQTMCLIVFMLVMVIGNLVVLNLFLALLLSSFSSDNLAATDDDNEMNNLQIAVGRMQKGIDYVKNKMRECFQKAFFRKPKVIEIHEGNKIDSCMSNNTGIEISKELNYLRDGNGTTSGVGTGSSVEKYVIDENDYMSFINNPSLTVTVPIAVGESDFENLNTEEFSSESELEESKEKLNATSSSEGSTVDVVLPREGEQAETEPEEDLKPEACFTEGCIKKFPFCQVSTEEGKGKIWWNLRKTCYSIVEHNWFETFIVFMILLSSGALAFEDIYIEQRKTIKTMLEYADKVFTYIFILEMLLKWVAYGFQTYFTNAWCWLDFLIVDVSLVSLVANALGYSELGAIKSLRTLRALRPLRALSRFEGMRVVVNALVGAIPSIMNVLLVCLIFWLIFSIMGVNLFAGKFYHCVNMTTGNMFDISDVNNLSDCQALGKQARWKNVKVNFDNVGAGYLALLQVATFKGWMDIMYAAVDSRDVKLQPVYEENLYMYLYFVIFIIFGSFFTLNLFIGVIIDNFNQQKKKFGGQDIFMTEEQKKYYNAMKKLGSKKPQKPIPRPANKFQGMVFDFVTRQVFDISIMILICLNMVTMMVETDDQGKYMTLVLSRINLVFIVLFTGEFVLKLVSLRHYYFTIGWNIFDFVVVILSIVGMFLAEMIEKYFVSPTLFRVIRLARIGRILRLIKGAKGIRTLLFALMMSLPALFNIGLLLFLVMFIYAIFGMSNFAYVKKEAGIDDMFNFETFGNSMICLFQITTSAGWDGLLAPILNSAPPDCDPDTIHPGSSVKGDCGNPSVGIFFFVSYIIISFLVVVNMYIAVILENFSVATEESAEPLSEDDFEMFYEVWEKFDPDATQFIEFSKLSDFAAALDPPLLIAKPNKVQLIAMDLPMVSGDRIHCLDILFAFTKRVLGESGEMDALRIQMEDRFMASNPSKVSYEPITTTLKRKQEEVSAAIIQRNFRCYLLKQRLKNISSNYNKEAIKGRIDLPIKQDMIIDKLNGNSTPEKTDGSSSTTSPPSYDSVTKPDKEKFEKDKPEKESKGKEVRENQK
Method in brief: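 Membrane potential in HEK293 cells stably expressing human NaV1.3, read by FRET (CC2-DMPE 10 µM / DiSBAC2(3) 15 µM with 0.555 mM VABSC-1) after electrical field stimulation, in HEPES-buffered saline pH 7.4. Compounds added after dye loading at room temperature. IC50 from normalized 440 nm fluorescence ratios.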

[1] = comparison compound of WO 2008147864

T1 sequence (Q15858 whole entry): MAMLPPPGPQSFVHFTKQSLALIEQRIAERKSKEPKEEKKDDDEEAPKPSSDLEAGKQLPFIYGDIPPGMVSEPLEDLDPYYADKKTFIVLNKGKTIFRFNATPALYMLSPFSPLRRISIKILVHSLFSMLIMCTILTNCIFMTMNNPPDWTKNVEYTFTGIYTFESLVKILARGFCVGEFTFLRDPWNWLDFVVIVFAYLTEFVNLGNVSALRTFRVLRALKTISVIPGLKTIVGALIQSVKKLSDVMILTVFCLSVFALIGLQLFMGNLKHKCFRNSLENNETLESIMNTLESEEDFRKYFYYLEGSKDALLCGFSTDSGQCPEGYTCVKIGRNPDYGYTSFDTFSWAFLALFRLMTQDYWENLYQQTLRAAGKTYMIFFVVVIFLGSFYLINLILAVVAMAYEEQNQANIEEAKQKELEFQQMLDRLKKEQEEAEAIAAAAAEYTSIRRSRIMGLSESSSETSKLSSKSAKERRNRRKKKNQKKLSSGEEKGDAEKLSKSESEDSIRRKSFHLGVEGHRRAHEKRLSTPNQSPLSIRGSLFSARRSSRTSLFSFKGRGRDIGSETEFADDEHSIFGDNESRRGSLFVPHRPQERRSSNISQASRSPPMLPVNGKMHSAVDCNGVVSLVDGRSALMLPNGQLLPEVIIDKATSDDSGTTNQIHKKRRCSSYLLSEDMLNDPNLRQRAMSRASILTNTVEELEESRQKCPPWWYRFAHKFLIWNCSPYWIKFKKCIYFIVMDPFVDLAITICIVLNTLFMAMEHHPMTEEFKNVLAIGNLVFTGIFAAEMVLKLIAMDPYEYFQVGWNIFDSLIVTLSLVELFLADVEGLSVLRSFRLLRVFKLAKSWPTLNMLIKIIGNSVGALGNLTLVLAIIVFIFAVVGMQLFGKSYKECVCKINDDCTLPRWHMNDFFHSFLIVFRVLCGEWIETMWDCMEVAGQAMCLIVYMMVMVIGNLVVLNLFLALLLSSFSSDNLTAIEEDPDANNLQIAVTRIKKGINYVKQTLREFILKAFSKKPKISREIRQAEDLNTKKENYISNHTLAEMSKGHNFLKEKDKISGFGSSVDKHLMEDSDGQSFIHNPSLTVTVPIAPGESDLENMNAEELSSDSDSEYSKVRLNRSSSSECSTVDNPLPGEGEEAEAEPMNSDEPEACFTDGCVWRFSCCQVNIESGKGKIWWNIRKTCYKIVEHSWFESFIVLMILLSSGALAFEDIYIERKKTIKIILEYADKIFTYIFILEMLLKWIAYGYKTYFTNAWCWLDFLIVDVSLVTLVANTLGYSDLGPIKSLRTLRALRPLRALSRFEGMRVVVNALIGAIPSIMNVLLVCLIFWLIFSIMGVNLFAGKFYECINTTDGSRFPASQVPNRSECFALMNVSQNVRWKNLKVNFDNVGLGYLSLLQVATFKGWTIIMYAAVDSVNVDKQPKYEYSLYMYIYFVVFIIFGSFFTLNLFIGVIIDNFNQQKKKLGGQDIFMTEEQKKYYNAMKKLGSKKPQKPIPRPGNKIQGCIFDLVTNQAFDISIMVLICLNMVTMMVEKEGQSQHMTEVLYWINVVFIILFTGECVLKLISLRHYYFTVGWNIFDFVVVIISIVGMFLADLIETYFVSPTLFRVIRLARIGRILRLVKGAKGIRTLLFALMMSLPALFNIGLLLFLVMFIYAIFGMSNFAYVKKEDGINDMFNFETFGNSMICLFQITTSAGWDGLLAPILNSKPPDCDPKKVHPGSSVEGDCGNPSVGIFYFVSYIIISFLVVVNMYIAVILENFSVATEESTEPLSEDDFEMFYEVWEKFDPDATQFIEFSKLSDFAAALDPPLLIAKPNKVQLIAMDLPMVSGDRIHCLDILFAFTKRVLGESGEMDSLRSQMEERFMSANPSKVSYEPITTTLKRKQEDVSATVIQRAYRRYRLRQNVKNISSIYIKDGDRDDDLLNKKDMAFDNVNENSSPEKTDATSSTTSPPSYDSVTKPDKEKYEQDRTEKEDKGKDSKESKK

Row | Structure (SMILES) | IC50 (human Nav1.7) [µM] | IC50 (human NaV1.3) [µM] | further results
1 | O=C(c1ccc2c(=O)n(CCc3ccccc3)c(=O)[nH]c2c1)N1CCN(c2ncccn2)CC1 [3-(2-phenylethyl)-7-[(4-pyrimidin-2-ylpiperazin-1-yl)carbonyl]quinazoline-2,4(1H,3H)-dione] |  |  | activity against NaV1.7 (human Nav1.7; [1]): no activity; activity against NaV1.3 (human NaV1.3; [1]): no activity
2 | CC(C)COc1cc(N2CCN(C(=O)c3cccc(OC(F)(F)F)c3)CC2)ncn1 [Example 15, (4-(6-isobutoxypyrimidin-4-yl)piperazin-1-yl)(3-(trifluoromethoxy)phenyl)methanone] | < 3 | < 3 | 
3 | CC(C)COc1cc(N2CCN(C(=O)c3nn(C)c4ccccc34)CC2)ncn1 [Example 22, (4-(6-isobutoxypyrimidin-4-yl)piperazin-1-yl)(1-methyl-1H-indazol-3-yl)methanone] | < 3 | < 3 | 
4 | CC(C)COc1cc(N2CCN(C(=O)COc3ccc(F)cc3)CC2)ncn1 [Example 24, 2-(4-fluorophenoxy)-1-(4-(6-isobutoxypyrimidin-4-yl)piperazin-1-yl)ethanone] | < 3 | < 3 | 
5 | CC(C)COc1cc(N2CCN(C(=O)c3ccc(C(F)(F)F)cc3O)CC2)ncn1 [Example 42, (2-hydroxy-4-(trifluoromethyl)phenyl)(4-(6-isobutoxypyrimidin-4-yl)piperazin-1-yl)methanone] | < 3 |  | 
6 | CC(C)COc1cc(N2CCN(C(=O)c3cc4ccccc4n3C)CC2)ncn1 [Example 43, (4-(6-isobutoxypyrimidin-4-yl)piperazin-1-yl)(1-methyl-1H-indol-2-yl)methanone] | < 3 |  | 
7 | CC(C)COc1cc(N2CCN(C(=O)CCn3ccc4ccccc43)CC2)ncn1 [Example 59, 3-(1H-indol-1-yl)-1-(4-(6-isobutoxypyrimidin-4-yl)piperazin-1-yl)propan-1-one] | < 3 | < 3 | 
8 | CC(C)COc1cc(N2CCN(C(=O)Cc3c[nH]c4ccc(F)cc34)CC2)ncn1 [Example 60, 2-(5-fluoro-1H-indol-3-yl)-1-(4-(6-isobutoxypyrimidin-4-yl)piperazin-1-yl)ethanone] | < 3 |  | 
9 | O=C(c1ccc2cccc(O)c2n1)N1CCN(c2cc(OCC(F)(F)F)ncn2)CC1 [Example 65, (8-hydroxyquinolin-2-yl)(4-(6-(2,2,2-trifluoroethoxy)pyrimidin-4-yl)piperazin-1-yl)methanone] | < 3 |  | 
10 | COc1cccc(OCC(=O)N2CCN(c3cc(OCC(C)C)ncn3)CC2)c1 [Example 70, 1-(4-(6-isobutoxypyrimidin-4-yl)piperazin-1-yl)-2-(3-methoxyphenoxy)ethanone] | < 3 | < 3 | 
11 | CC(C)COc1cc(N2CCN(C(=O)CNC(=O)c3ccc(OCC(F)(F)F)nc3)CC2)ncn1 [Example 74, N-(2-(4-(6-isobutoxypyrimidin-4-yl)piperazin-1-yl)-2-oxoethyl)-6-(2,2,2-trifluoroethoxy)nicotinamide] | < 3 | < 3 | 
12 | CC(C)COc1cc(N2CCN(C(=O)CNC(=O)c3cccc4[nH]ccc34)CC2)ncn1 [Example 75, N-(2-(4-(6-isobutoxypyrimidin-4-yl)piperazin-1-yl)-2-oxoethyl)-1H-indole-4-carboxamide] | < 3 |  | 
13 | CC(C)COc1cc(N2CCN(C(=O)CNC(=O)c3nn(C)c4ccccc34)CC2)ncn1 [Example 76, N-(2-(4-(6-isobutoxypyrimidin-4-yl)piperazin-1-yl)-2-oxoethyl)-1-methyl-1H-indazole-3-carboxamide] | < 3 |  | 
14 | CC(C)COc1cc(N2CCN(C(=O)COc3cccc4cccnc34)CC2)ncn1 [Example 77, 1-(4-(6-isobutoxypyrimidin-4-yl)piperazin-1-yl)-2-(quinolin-8-yloxy)ethanone] | < 3 | < 3 | 
15 | CC(C)COc1cc(N2CCN(C(=O)c3cc4ccccc4s3)CC2)ncn1 [Example 86] | < 3 | < 3 | 
16 | CC(C)COc1cc(N2CCN(C(=O)CCOc3ccc(F)cc3)CC2)ncn1 [Example 89, 3-(4-fluorophenoxy)-1-(4-(6-isobutoxypyrimidin-4-yl)piperazin-1-yl)propan-1-one] | < 3 | < 3 | 
17 | CC(C)COc1cc(N2CCN(C(=O)c3cc(-c4ccccc4)on3)CC2)ncn1 [Example 90] | < 3 | < 3 | 
18 | CC(C)COc1cc(N2CCN(C(=O)CNC3CCCCC3)CC2)ncn1 [Example 100, 2-(cyclohexylamino)-1-(4-(6-isobutoxypyrimidin-4-yl)piperazin-1-yl)ethanone] | < 3 |  | 
19 | CC(C)COc1cc(N2CCN(C(=O)Cc3c[nH]c4ccccc34)CC2)ncn1 [Example 102, 2-(1H-indol-3-yl)-1-(4-(6-isobutoxypyrimidin-4-yl)piperazin-1-yl)ethanone] | < 3 |  | 
20 | O=C(Cc1c[nH]c2ccc(F)cc12)N1CCN(c2cc(OCC(F)(F)F)ncn2)CC1 [Example 110, 2-(5-fluoro-1H-indol-3-yl)-1-(4-(6-(2,2,2-trifluoroethoxy)pyrimidin-4-yl)piperazin-1-yl)ethanone] | < 3 |  | 
21 | CC(C)COc1cc(N2CCN(C(=O)COc3cccc4[nH]ccc34)CC2)ncn1 [Example 137, 2-((1H-indol-4-yl)oxy)-1-(4-(6-isobutoxypyrimidin-4-yl)piperazin-1-yl)ethanone] | < 3 |  | 
22 | CC(C)COc1cc(N2CCN(C(=O)COc3ccccc3C(F)(F)F)CC2)ncn1 [Example 143, 1-(4-(6-isobutoxypyrimidin-4-yl)piperazin-1-yl)-2-(2-(trifluoromethyl)phenoxy)ethanone] | < 3 |  | 
23 | O=C(COc1cccc2cccnc12)N1CCN(c2cc(OCC(F)(F)F)ncn2)CC1 [Example 156, 2-(quinolin-8-yloxy)-1-(4-(6-(2,2,2-trifluoroethoxy)pyrimidin-4-yl)piperazin-1-yl)ethanone] | < 3 |  | 
24 | CC(C)COc1cc(N2CCN(C(=O)COc3ccc4ccccc4n3)CC2)ncn1 [Example 160, 1-(4-(6-isobutoxypyrimidin-4-yl)piperazin-1-yl)-2-(quinolin-2-yloxy)ethanone] | < 3 |  | 
25 | O=C(c1csc(-c2ccccc2)n1)N1CCN(c2cc(OCC(F)(F)F)ncn2)CC1 [Example 166, (2-phenylthiazol-4-yl)(4-(6-(2,2,2-trifluoroethoxy)pyrimidin-4-yl)piperazin-1-yl)methanone] | < 3 |  | 
26 | COc1ccccc1-c1cc(C(=O)N2CCN(c3cc(OCC(C)C)ncn3)CC2)[nH]n1 [Example 175] | < 3 |  | 
27 | CC(C)COc1cc(N2CCN(C(=O)Cn3ccc4ccccc4c3=O)CC2)ncn1 [Example 236, 2-(2-(4-(6-isobutoxypyrimidin-4-yl)piperazin-1-yl)-2-oxoethyl)isoquinolin-1(2H)-one] | < 3 |  | 
28 | O=C(c1cncn1-c1ccccc1C(F)(F)F)N1CCN(c2cc(OCC(F)(F)F)ncn2)CC1 [Example 243, (4-(6-(2,2,2-trifluoroethoxy)pyrimidin-4-yl)piperazin-1-yl)(1-(2-(trifluoromethyl)phenyl)-1H-imidazol-5-yl)methanone] | < 3 |  | 
29 | Cc1onc(-c2ccccc2)c1C(=O)N1CCN(c2cc(OCC(F)(F)F)ncn2)CC1 [Example 245, (5-methyl-3-phenylisoxazol-4-yl)(4-(6-(2,2,2-trifluoroethoxy)pyrimidin-4-yl)piperazin-1-yl)methanone] | < 3 |  | 

Source: US8999974B2, “Acyl piperazine derivatives as TTX-S blockers” (Raqualia Pharma Inc., priority 2010, dated 2015)
